Results taken from PubChem BioAssay (NCI).
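Test compounds were applied to cells in 96-well plates for 48 hours at 5 doses. GI50: concentration for 50% inhibition of growth. TGI marks complete inhibition of growth.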

Assays:
Assay in all cases: NCI anticancer screen, dose series, 48 h
[1] = system: HCT-116 colon
[2] = system: DU-145 prostate
[3] = system: HT29 colon
[4] = system: UACC-62 melanoma
[5] = system: SR leukemia
[6] = system: OVCAR-3 ovarian
[7] = system: SF-268 CNS
[8] = system: NCI-H226 lung
[9] = system: NCI/ADR-RES ovarian
[10] = system: HOP-92 NSCLC
[11] = system: CCRF-CEM leukemia
[12] = system: MOLT-4 leukemia
[13] = system: A549 NSCLC
[14] = system: SW-620 colon
[15] = system: COLO 205 colon
[16] = system: MDA-MB-468 breast
[17] = system: HL-60(TB) leukemia
[18] = system: SF-539 CNS
[19] = system: RXF 393 renal
[20] = system: SK-OV-3 ovarian
[21] = system: SF-295 CNS
[22] = system: K-562 leukemia
[23] = system: NCI-H460 lung
[24] = system: LOX IMVI melanoma
[25] = system: SN12C renal
[26] = system: ACHN renal
[27] = system: BT-549 breast
[28] = system: HCC-2998 colon
[29] = system: SK-MEL-2 melanoma
[30] = system: EKVX NSCLC
[31] = system: SNB-75 CNS
[32] = system: TK-10 renal
[33] = system: SNB-19 CNS
[34] = system: MCF7 breast
[35] = system: MALME-3M melanoma
[36] = system: PC-3 prostate
[37] = system: NCI-H23 lung
[38] = system: OVCAR-5 ovarian
[39] = system: KM12 colon
[40] = system: 786-0 renal
[41] = system: RPMI-8226 leukemia
[42] = system: UACC-257 melanoma
[43] = system: HS 578T breast
[44] = system: UO-31 renal
[45] = system: SK-MEL-28 melanoma
[46] = system: IGROV1 ovarian
[47] = system: HCT-15 colon
[48] = system: T-47D breast
[49] = system: CAKI-1 renal
[50] = system: SK-MEL-5 melanoma
[51] = system: MDA-MB-435
[52] = system: U251 CNS
[53] = system: OVCAR-4 ovarian
[54] = system: M14 melanoma
[55] = system: NCI-H522 lung
[56] = system: A498 renal
[57] = system: HOP-62 NSCLC
[58] = system: MDA-MB-231 breast
[59] = system: OVCAR-8 ovarian

For `COc1ccc(Cc2nn(CC(=O)N/N=C/c3ccc(Br)cc3)c(=O)c3c(C)noc23)cc1`, the GI50 [1] was 0.81 µM, the TGI [1] was 10.3 µM and the GI50 [2] was 16.1 µM. It also gave a TGI [2] of over 100 µM, a GI50 [3] of 5.05 µM and a TGI [3] of over 100 µM. For the same compound, the GI50 [4] was 14.1 µM, the TGI [4] was over 100 µM and the GI50 [5] was 14.6 µM. The TGI [5] was over 100 µM, the GI50 [6] was 2.27 µM and the TGI [6] was 10.9 µM. For the same compound, the GI50 [7] was 14.8 µM, the TGI [7] was 52.6 µM and the GI50 [8] was 2.52 µM. For the same compound, the TGI [8] was 13.4 µM, the GI50 [9] was 4.6 µM and the TGI [9] was over 100 µM. For the same compound, the GI50 [10] was 4.98 µM, the TGI [10] was 21.2 µM and the GI50 [11] was 7.87 µM. The TGI [11] was over 100 µM, the GI50 [12] was 7.82 µM and the TGI [12] was over 100 µM. The GI50 [13] was 1.49 µM, the TGI [13] was over 100 µM and the GI50 [14] was 3.07 µM. The TGI [14] was over 100 µM, the GI50 [15] was over 100 µM and the TGI [15] was over 100 µM. It also gave a GI50 [16] of 7.58 µM, a TGI [16] of 27.4 µM and a GI50 [17] of over 100 µM. It also gave a TGI [17] of over 100 µM, a GI50 [18] of 11.9 µM and a TGI [18] of 25.4 µM. The GI50 [19] was 2.75 µM, the TGI [19] was 11.4 µM and the GI50 [20] was 5.55 µM. It also gave a TGI [20] of 20.1 µM, a GI50 [21] of 10.3 µM and a TGI [21] of 23.4 µM. For the same compound, the GI50 [22] was 14.8 µM, the TGI [22] was over 100 µM and the GI50 [23] was 1.56 µM. It also gave a TGI [23] of 16.4 µM, a GI50 [24] of 3.54 µM and a TGI [24] of 52.8 µM. The GI50 [25] was 1.63 µM, the TGI [25] was 11.5 µM and the GI50 [26] was 2.65 µM. The TGI [26] was 11.2 µM, the GI50 [27] was 18.2 µM and the TGI [27] was 58 µM. The GI50 [28] was 34.5 µM, the TGI [28] was over 100 µM and the GI50 [29] was 16.4 µM. For the same compound, the TGI [29] was 32.1 µM, the GI50 [30] was 14.5 µM and the TGI [30] was 83.1 µM. For the same compound, the GI50 [31] was 0.287 µM, the TGI [31] was 1.41 µM and the GI50 [32] was 10.1 µM. For the same compound, the TGI [32] was 23.9 µM, the GI50 [33] was 14.6 µM and the TGI [33] was 33.1 µM. For the same compound, the GI50 [34] was 3.44 µM, the TGI [34] was over 100 µM and the GI50 [35] was 5.48 µM. For the same compound, the TGI [35] was 29.1 µM, the GI50 [36] was 10.4 µM and the TGI [36] was over 100 µM. The GI50 [37] was 7.06 µM, the TGI [37] was 22.8 µM and the GI50 [38] was 16.8 µM. For the same compound, the TGI [38] was over 100 µM, the GI50 [39] was over 100 µM and the TGI [39] was over 100 µM. The GI50 [40] was 1.48 µM, the TGI [40] was 6.94 µM and the GI50 [41] was 69.9 µM. For the same compound, the TGI [41] was over 100 µM, the GI50 [42] was over 100 µM and the TGI [42] was over 100 µM. For the same compound, the GI50 [43] was 3.61 µM, the TGI [43] was 61.2 µM and the GI50 [44] was 2.98 µM. It also gave a TGI [44] of 15.3 µM, a GI50 [45] of 36.9 µM and a TGI [45] of over 100 µM. The GI50 [46] was 12.4 µM, the TGI [46] was 32.3 µM and the GI50 [47] was 12.3 µM. The TGI [47] was over 100 µM, the GI50 [48] was 0.97 µM and the TGI [48] was 9.48 µM. It also gave a GI50 [49] of 5.21 µM, a TGI [49] of 19.1 µM and a GI50 [50] of over 100 µM. It also gave a TGI [50] of over 100 µM, a GI50 [51] of 30.5 µM and a TGI [51] of over 100 µM. For the same compound, the GI50 [52] was 2.03 µM, the TGI [52] was 13.4 µM and the GI50 [53] was 0.511 µM. For the same compound, the TGI [53] was 2.12 µM, the GI50 [54] was 18.5 µM and the TGI [54] was over 100 µM. It also gave a GI50 [55] of 8.77 µM, a TGI [55] of 41.6 µM and a GI50 [56] of 3.01 µM. For the same compound, the TGI [56] was 8.8 µM, the GI50 [57] was 10.6 µM and the TGI [57] was 26.4 µM. It also gave a GI50 [58] of 5.73 µM, a TGI [58] of 25.8 µM and a GI50 [59] of 17.4 µM. It also gave a TGI [59] of over 100 µM.
`COc1ccc(C(=O)/C=C/c2ccccc2Br)cc1S(N)(=O)=O` showed a GI50 [1] of 1.52 µM, a TGI [1] of 3.02 µM and a GI50 [2] of 3.35 µM. The TGI [2] was 11.4 µM, the GI50 [3] was 2.27 µM and the TGI [3] was 4.9 µM. The GI50 [4] was 3.64 µM, the TGI [4] was 15.3 µM and the GI50 [5] was 1.48 µM. The TGI [5] was 4.43 µM, the GI50 [6] was 2.09 µM and the TGI [6] was 4.73 µM. For the same compound, the GI50 [7] was 3.66 µM, the TGI [7] was 14.6 µM and the GI50 [8] was 2.47 µM. It also gave a TGI [8] of 6.96 µM, a GI50 [9] of 2.28 µM and a TGI [9] of 5.67 µM. It also gave a GI50 [10] of 3.29 µM, a TGI [10] of 16 µM and a GI50 [11] of 3.07 µM. For the same compound, the TGI [11] was 11.1 µM, the GI50 [12] was 1.93 µM and the TGI [12] was 5 µM. For the same compound, the GI50 [13] was 2.67 µM, the TGI [13] was 8.9 µM and the GI50 [14] was 1.79 µM. For the same compound, the TGI [14] was 4.04 µM, the GI50 [15] was 2.21 µM and the TGI [15] was 4.49 µM. It also gave a GI50 [16] of 2.56 µM, a TGI [16] of 13.2 µM and a GI50 [17] of 2.64 µM. The TGI [17] was 17.2 µM, the GI50 [18] was 1.74 µM and the TGI [18] was 3.21 µM. The GI50 [19] was 1.91 µM, the TGI [19] was 4.38 µM and the GI50 [20] was 12.9 µM. For the same compound, the TGI [20] was 26 µM, the GI50 [21] was 4.13 µM and the TGI [21] was 16.1 µM. The GI50 [22] was 1.85 µM, the TGI [22] was 5.09 µM and the GI50 [23] was 1.94 µM. It also gave a TGI [23] of 4.58 µM, a GI50 [24] of 1.65 µM and a TGI [24] of 3.02 µM. The GI50 [25] was 1.86 µM, the TGI [25] was 4.15 µM and the GI50 [26] was 1.84 µM. The TGI [26] was 3.56 µM, the GI50 [27] was 4.56 µM and the TGI [27] was 16.8 µM. The GI50 [28] was 2.9 µM, the TGI [28] was 12.4 µM and the GI50 [29] was 14.4 µM. The TGI [29] was 28.1 µM, the GI50 [30] was 9.86 µM and the TGI [30] was 21.8 µM. It also gave a GI50 [32] of 3.29 µM, a TGI [32] of 11.9 µM and a GI50 [33] of 4.26 µM. For the same compound, the TGI [33] was 16 µM, the GI50 [34] was 2.89 µM and the TGI [34] was 11.3 µM. The GI50 [35] was 10.8 µM, the TGI [35] was 22.7 µM and the GI50 [36] was 4.28 µM. The TGI [36] was 16.9 µM, the GI50 [37] was 3.22 µM and the TGI [37] was 12.7 µM. For the same compound, the GI50 [38] was 2.2 µM, the TGI [38] was 5.99 µM and the GI50 [39] was 1.87 µM. For the same compound, the TGI [39] was 4.01 µM, the GI50 [40] was 1.81 µM and the TGI [40] was 3.66 µM. It also gave a GI50 [41] of 2.3 µM, a TGI [41] of 6.84 µM and a GI50 [42] of 11.9 µM. The TGI [42] was 24.5 µM, the GI50 [43] was 8.91 µM and the TGI [43] was 72 µM. It also gave a GI50 [44] of 1.53 µM, a TGI [44] of 3.05 µM and a GI50 [45] of 8.3 µM. The TGI [45] was 20.5 µM, the GI50 [46] was 2.76 µM and the TGI [46] was 10 µM. For the same compound, the GI50 [47] was 1.65 µM, the TGI [47] was 3.45 µM and the GI50 [48] was 3.57 µM. For the same compound, the TGI [48] was 15.8 µM, the GI50 [49] was 4.24 µM and the TGI [49] was 16.2 µM. The GI50 [50] was 7.78 µM, the TGI [50] was 20.5 µM and the GI50 [51] was 7.18 µM. For the same compound, the TGI [51] was 20.1 µM, the GI50 [52] was 1.49 µM and the TGI [52] was 2.82 µM. For the same compound, the GI50 [53] was 3.25 µM, the TGI [53] was 13.1 µM and the GI50 [54] was 6.83 µM. It also gave a TGI [54] of 21.3 µM, a GI50 [55] of 1.77 µM and a TGI [55] of 4.12 µM. For the same compound, the GI50 [56] was 11.4 µM, the TGI [56] was 24.1 µM and the GI50 [57] was 2.41 µM. For the same compound, the TGI [57] was 7.39 µM, the GI50 [58] was 2.09 µM and the TGI [58] was 4.69 µM. The GI50 [59] was 2.62 µM and the TGI [59] was 8.33 µM.
